Biological target: Protein farnesyltransferase (Homo sapiens, UniProt P49354+P49356)
Experiment: Inhibition of farnesyl transferase
Format: protein-complex assay

Row | IC50 [µM] | Structure (SMILES)
1 | 1.1 | CC1(c2cccc3ccccc23)C(=O)N(CCCn2ccnc2)C(=O)N1Cc1ccc(S(C)(=O)=O)cc1 (stereo not drawn)
2 | 0.16 | CC1(c2cccc3ccccc23)C(=O)N(CCCn2ccnc2)C(=O)N1Cc1ccc(Br)cc1 (stereo not drawn)
3 | 0.2 | CC1(c2cccc3ccccc23)C(=O)N(CCCn2ccnc2)C(=O)N1Cc1ccc(C(=O)O)cc1 (stereo not drawn)
4 | 1.2 | CC1(c2cccc3ccccc23)C(=O)N(CCCn2ccnc2)C(=O)N1Cc1cccc(CNS(C)(=O)=O)c1 (stereo not drawn)
5 | 0.7 | CSc1ccc(CN2C(=O)N(CCCn3ccnc3)C(=O)C2(C)c2cccc3ccccc23)cc1 (stereo not drawn)
6 | 2.8 | CCOC(=O)CN1C(=O)N(CCCc2cncn2C)C(=O)C1(C)c1cccc2ccccc12 (stereo not drawn)
7 | 0.75 | CC1(c2cccc3ccccc23)C(=O)N(CCCn2ccnc2)C(=O)N1Cc1ccc(Oc2ccccc2)cc1 (stereo not drawn)
8 | 1.7 | CC1(c2cccc3ccccc23)C(=O)N(CCCn2ccnc2)C(=O)N1Cc1cccc(C(F)(F)F)c1 (stereo not drawn)
9 | 0.24 | CC1(c2cccc3ccccc23)C(=O)N(CCCn2ccnc2)C(=O)N1Cc1cccc(Cl)c1 (stereo not drawn)
10 | 1.3 | CC1(c2cccc3ccccc23)C(=O)N(CCCn2ccnc2)C(=O)N1Cc1ccccc1C#N (stereo not drawn)
11 | 1 | CCOC(=O)CN1C(=O)N(CCCn2ccnc2)C(=O)C1(C)c1cccc2ccccc12 (stereo not drawn)
12 | 19000 | COC(=O)[C@H](CCSC)NC(=O)CN1C(=O)N(Cc2cnc[nH]2)C(=O)C1(C)c1cccc2ccccc12 (stereo partly drawn)
13 | 0.37 | CC1(c2cccc3ccccc23)C(=O)N(CCCn2ccnc2)C(=O)N1Cc1cccc(Br)c1 (stereo not drawn)
14 | 2500 | COC(=O)[C@H](CCSC)NC(=O)CN1C(=O)N(CCc2cnc[nH]2)C(=O)C1(C)c1cccc2ccccc12 (stereo partly drawn)
15 | 0.09 | CC1(c2cccc3ccccc23)C(=O)N(CCCn2ccnc2)C(=O)N1Cc1cccc(C#N)c1 (stereo not drawn)
16 | 4.8 | CSCC[C@H](NC(=O)CN1C(=O)N(CCc2cnc[nH]2)C(=O)C1(C)c1cccc2ccccc12)C(=O)O (stereo partly drawn)
17 | 500 | COC(=O)[C@H](CCSC)NC(=O)CN1C(=O)N(CCCc2cnc[nH]2)C(=O)C1(C)c1cccc2ccccc12 (stereo partly drawn)
18 | 7.7 | CC1(c2cccc3ccccc23)NC(=O)N(CCCn2ccnc2)C1=O (stereo not drawn)
19 | 0.35 | CC1(c2cccc3ccccc23)C(=O)N(CCCn2ccnc2)C(=O)N1Cc1ccc(CNS(C)(=O)=O)cc1 (stereo not drawn)
20 | 40 | CC1(c2cccc3ccccc23)NC(=O)N(CCCc2cnc[nH]2)C1=O (stereo not drawn)
21 | 0.72 | CC1(c2cccc3ccccc23)C(=O)N(CCCn2ccnc2)C(=O)N1Cc1cccc(Oc2ccccc2)c1 (stereo not drawn)
22 | 0.08 | CSc1ccc(CN2C(=O)N(CCCn3ccnc3)C(=O)C2(C)c2cccc3ccccc23)cc1C#N (stereo not drawn)
23 | 0.9 | CC1(c2cccc3ccccc23)C(=O)N(CCCn2ccnc2)C(=O)N1Cc1ccc(C#N)cc1 (stereo not drawn)
24 | 0.21 | CSCc1ccc(CN2C(=O)N(CCCn3ccnc3)C(=O)C2(C)c2cccc3ccccc23)cc1 (stereo not drawn)

Row | Structure (SMILES) | IC50 [µM]
25 | CC1(c2cccc3ccccc23)C(=O)N(CCCn2ccnc2)C(=O)N1Cc1ccccc1CNS(C)(=O)=O (stereo not drawn) | 0.5
26 | CSCC[C@H](NC(=O)CN1C(=O)N(Cc2c[nH]cn2)C(=O)C1(C)c1cccc2ccccc12)C(=O)O (stereo partly drawn) | 61
27 | CC1(c2cccc3ccccc23)C(=O)N(CCCn2ccnc2)C(=O)N1Cc1ccc(S(C)(=O)=O)c(C#N)c1 (stereo not drawn) | 0.73
28 | CSCC[C@H](NC(=O)CN1C(=O)N(CCCc2c[nH]cn2)C(=O)C1(C)c1cccc2ccccc12)C(=O)O (stereo partly drawn) | 0.8

Reference: ChEMBL document CHEMBL1146930, “Hydantoin derivatives as non-peptidic inhibitors of Ras farnesyl transferase” (Bioorg Med Chem Lett, 2006)
